From the NIST ThermoML archive (doi:10.1016/j.jct.2008.12.018)
Numbers after ± are expanded uncertainties.

Assay: activity coefficient (dimensionless); of the first substance listed, at infinite dilution; xn = mol fraction of the nth substance listed
Conditions: Liquid, Chromatography, x1 = 0

SMILES	activity coefficient (328.15 K)	activity coefficient (338.15 K)	activity coefficient (348.15 K)	activity coefficient (358.15 K)	activity coefficient (368.15 K)	activity coefficient (308.15 K)	activity coefficient (318.15 K)	activity coefficient (298.15 K)	activity coefficient (298.15 K, 101 kPa)	activity coefficient (308.15 K, 101 kPa)	activity coefficient (318.15 K, 101 kPa)	activity coefficient (328.15 K, 101 kPa)	activity coefficient (338.15 K, 101 kPa)	activity coefficient (348.15 K, 101 kPa)	activity coefficient (358.15 K, 101 kPa)	activity coefficient (368.15 K, 101 kPa)
C#CCCCCCC [1-octyne] + CCCCn1cc[n+](C)c1.N#C[S-]	15.3 ± 1	15.3 ± 1	15.3 ± 1	15.3 ± 1	–	15.1 ± 1	15.4 ± 1.1	15.2 ± 1	–	–	–	–	–	–	–	–
c1ccccc1 [benzene] + CCCCn1cc[n+](C)c1.N#C[S-]	2.18 ± 0.15	2.2 ± 0.15	2.22 ± 0.15	2.25 ± 0.15	2.27 ± 0.15	2.15 ± 0.15	2.17 ± 0.15	2.13 ± 0.14	–	–	–	–	–	–	–	–
C#CCCCC [1-hexyne] + CCCCn1cc[n+](C)c1.N#C[S-]	6.65 ± 0.45	6.76 ± 0.46	6.87 ± 0.47	6.95 ± 0.47	–	6.45 ± 0.44	6.59 ± 0.45	6.42 ± 0.44	–	–	–	–	–	–	–	–
CCCCCCCCCC [decane] + CCCCn1cc[n+](C)c1.N#C[S-]	470 ± 23	426 ± 20	386 ± 19	351 ± 17	–	581 ± 40	533 ± 26	628 ± 43	–	–	–	–	–	–	–	–
CCO [ethanol] + CCCCn1cc[n+](C)c1.N#C[S-]	0.671 ± 0.045	0.655 ± 0.045	0.643 ± 0.044	0.631 ± 0.044	0.623 ± 0.043	0.709 ± 0.047	0.69 ± 0.046	0.743 ± 0.049	–	–	–	–	–	–	–	–
Cc1ccccc1C [1,2-dimethylbenzene] + CCCCn1cc[n+](C)c1.N#C[S-]	4.69 ± 0.32	4.71 ± 0.32	4.75 ± 0.32	4.78 ± 0.33	4.81 ± 0.33	4.64 ± 0.32	4.71 ± 0.32	4.58 ± 0.31	–	–	–	–	–	–	–	–
C1CCCC1 [cyclopentane] + CCCCn1cc[n+](C)c1.N#C[S-]	30 ± 2.1	26.8 ± 1.8	24.2 ± 1.7	23.1 ± 1.6	–	39.7 ± 2.7	34.9 ± 2.4	46.9 ± 3.2	–	–	–	–	–	–	–	–
Cc1ccc(C)cc1 [1,4-dimethylbenzene] + CCCCn1cc[n+](C)c1.N#C[S-]	5.6 ± 0.38	5.63 ± 0.38	5.68 ± 0.39	5.72 ± 0.39	5.75 ± 0.39	5.54 ± 0.38	5.59 ± 0.38	5.51 ± 0.38	–	–	–	–	–	–	–	–
C#CCCCCC [1-heptyne] + CCCCn1cc[n+](C)c1.N#C[S-]	10.2 ± 0.7	10.2 ± 0.7	10.3 ± 0.7	10.4 ± 0.71	–	9.92 ± 0.68	10.1 ± 0.69	9.88 ± 0.67	–	–	–	–	–	–	–	–
Cc1ccccc1 [toluene] + CCCCn1cc[n+](C)c1.N#C[S-]	3.53 ± 0.24	3.55 ± 0.24	3.59 ± 0.24	3.62 ± 0.25	3.65 ± 0.25	3.48 ± 0.24	3.52 ± 0.24	3.4 ± 0.23	–	–	–	–	–	–	–	–
C=CCCCC [hex-1-ene] + CCCCn1cc[n+](C)c1.N#C[S-]	44.9 ± 3.1	41.4 ± 2.8	38.3 ± 2.6	36.4 ± 2.5	–	54.8 ± 3.8	50.2 ± 3.4	61.6 ± 4.2	–	–	–	–	–	–	–	–
C1CCCCC1 [cyclohexane] + CCCCn1cc[n+](C)c1.N#C[S-]	41.1 ± 2.8	36.8 ± 2.5	33.5 ± 2.3	31.1 ± 2.1	–	53.5 ± 3.7	47.1 ± 3.2	62.3 ± 4.3	–	–	–	–	–	–	–	–
C1CCCCCC1 [cycloheptane] + CCCCn1cc[n+](C)c1.N#C[S-]	42 ± 2.9	38.9 ± 2.7	36.1 ± 2.5	33.7 ± 2.3	–	51 ± 3.5	46.5 ± 3.2	56.6 ± 3.9	–	–	–	–	–	–	–	–
C=CCCC [1-pentene] + CCCCn1cc[n+](C)c1.N#C[S-]	35.4 ± 2.4	32.6 ± 2.2	30.6 ± 2.1	27.6 ± 1.9	–	46.4 ± 3.2	41.5 ± 2.8	52.3 ± 3.6	–	–	–	–	–	–	–	–
C1CCCCCCC1 [cyclooctane] + CCCCn1cc[n+](C)c1.N#C[S-]	53.2 ± 3.6	48.6 ± 3.3	45 ± 3.1	41.9 ± 2.9	–	63.1 ± 4.3	57.8 ± 4	70 ± 4.8	–	–	–	–	–	–	–	–
CCCCO [butan-1-ol] + CCCCn1cc[n+](C)c1.N#C[S-]	1.21 ± 0.08	1.16 ± 0.07	1.13 ± 0.07	1.1 ± 0.07	1.08 ± 0.07	1.32 ± 0.09	1.25 ± 0.08	–	–	–	–	–	–	–	–	–
CCCCCC [hexane] + CCCCn1cc[n+](C)c1.N#C[S-]	143 ± 10	126 ± 9	108 ± 7	100 ± 7	–	189 ± 13	167 ± 11	226 ± 16	–	–	–	–	–	–	–	–
COC(C)(C)C [2-methoxy-2-methylpropane] + CCCCn1cc[n+](C)c1.N#C[S-]	11.4 ± 0.52	11.1 ± 0.51	10.7 ± 0.49	10.6 ± 0.49	–	12.4 ± 0.57	11.9 ± 0.55	12.8 ± 0.59	–	–	–	–	–	–	–	–
C=CCCCCC [1-heptene] + CCCCn1cc[n+](C)c1.N#C[S-]	62.3 ± 4.3	58 ± 4	54.8 ± 3.8	52.4 ± 3.6	–	73.7 ± 5.1	68.5 ± 4.7	81.1 ± 5.6	–	–	–	–	–	–	–	–
CCCCCCC [heptane] + CCCCn1cc[n+](C)c1.N#C[S-]	183 ± 13	162 ± 11	146 ± 10	132 ± 9	–	245 ± 17	213 ± 15	281 ± 19	–	–	–	–	–	–	–	–
C#CCCC [1-pentyne] + CCCCn1cc[n+](C)c1.N#C[S-]	4.73 ± 0.32	4.79 ± 0.33	4.85 ± 0.33	4.97 ± 0.34	–	4.68 ± 0.32	4.71 ± 0.32	4.6 ± 0.31	–	–	–	–	–	–	–	–
CCc1ccccc1 [ethylbenzene] + CCCCn1cc[n+](C)c1.N#C[S-]	5.86 ± 0.4	5.93 ± 0.4	5.83 ± 0.4	5.82 ± 0.4	5.81 ± 0.4	5.9 ± 0.4	5.93 ± 0.4	5.86 ± 0.4	–	–	–	–	–	–	–	–

The next lines start with the values.

activity coefficient (328.15 K)	activity coefficient (338.15 K)	activity coefficient (348.15 K)	activity coefficient (358.15 K)	activity coefficient (368.15 K)	activity coefficient (308.15 K)	activity coefficient (318.15 K)	activity coefficient (298.15 K)	activity coefficient (298.15 K, 101 kPa)	activity coefficient (308.15 K, 101 kPa)	activity coefficient (318.15 K, 101 kPa)	activity coefficient (328.15 K, 101 kPa)	activity coefficient (338.15 K, 101 kPa)	activity coefficient (348.15 K, 101 kPa)	activity coefficient (358.15 K, 101 kPa)	activity coefficient (368.15 K, 101 kPa)	SMILES
0.316 ± 0.035	0.316 ± 0.035	0.32 ± 0.035	0.323 ± 0.035	0.325 ± 0.035	–	–	–	–	–	–	–	–	–	–	–	O [water] + CCCCn1cc[n+](C)c1.N#C[S-]
0.87 ± 0.06	0.84 ± 0.05	0.83 ± 0.05	0.81 ± 0.05	0.8 ± 0.05	0.93 ± 0.06	0.9 ± 0.06	–	–	–	–	–	–	–	–	–	CCCO [propan-1-ol] + CCCCn1cc[n+](C)c1.N#C[S-]
–	–	–	–	–	–	–	–	2 ± 0.14	1.98 ± 0.13	1.99 ± 0.14	1.99 ± 0.14	1.99 ± 0.14	1.99 ± 0.14	1.99 ± 0.14	2.01 ± 0.14	C1CCOC1 [tetrahydrofuran] + CCCCn1cc[n+](C)c1.N#C[S-]
1.54 ± 0.1	1.5 ± 0.1	1.47 ± 0.1	1.45 ± 0.1	1.44 ± 0.09	–	1.62 ± 0.11	–	–	–	–	–	–	–	–	–	CCCCCO [pentan-1-ol] + CCCCn1cc[n+](C)c1.N#C[S-]
1.27 ± 0.082	1.29 ± 0.084	1.32 ± 0.085	1.33 ± 0.086	1.36 ± 0.089	1.24 ± 0.08	1.26 ± 0.081	1.21 ± 0.078	–	–	–	–	–	–	–	–	c1ccsc1 [thiophene] + CCCCn1cc[n+](C)c1.N#C[S-]
332 ± 23	298 ± 20	272 ± 19	252 ± 17	–	414 ± 28	376 ± 26	459 ± 32	–	–	–	–	–	–	–	–	CCCCCCCCC [nonane] + CCCCn1cc[n+](C)c1.N#C[S-]
88.1 ± 6	82.5 ± 5.7	77.6 ± 5.3	73.8 ± 5.1	–	102 ± 7	96.3 ± 6.6	111 ± 8	–	–	–	–	–	–	–	–	C=CCCCCCC [oct-1-ene] + CCCCn1cc[n+](C)c1.N#C[S-]
243 ± 17	218 ± 15	198 ± 14	180 ± 12	–	311 ± 21	279 ± 19	350 ± 24	–	–	–	–	–	–	–	–	CCCCCCCC [octane] + CCCCn1cc[n+](C)c1.N#C[S-]
0.391 ± 0.034	0.387 ± 0.034	0.386 ± 0.033	0.383 ± 0.033	0.382 ± 0.033	0.396 ± 0.034	0.396 ± 0.034	0.416 ± 0.035	–	–	–	–	–	–	–	–	CO [methanol] + CCCCn1cc[n+](C)c1.N#C[S-]
